{
  "source": "paper PMC6131351",
  "about": "“Pharmacological difference between degrader and inhibitor against oncogenic BCR-ABL kinase” (Scientific Reports, 2018)",
  "key": {"BCR-ABL protein": {"biological_target": "T1, BCR-ABL protein (Homo sapiens, UniProt P00519+P11274)", "T1 construct": "examined for their activity to degrade BCR-ABL in K562 cells for 6 h; BCR (fusion partner, P11274, N-terminal part); endogenous in cells; host or cells: K562", "T1 sequence (P11274+P00519 fused)": "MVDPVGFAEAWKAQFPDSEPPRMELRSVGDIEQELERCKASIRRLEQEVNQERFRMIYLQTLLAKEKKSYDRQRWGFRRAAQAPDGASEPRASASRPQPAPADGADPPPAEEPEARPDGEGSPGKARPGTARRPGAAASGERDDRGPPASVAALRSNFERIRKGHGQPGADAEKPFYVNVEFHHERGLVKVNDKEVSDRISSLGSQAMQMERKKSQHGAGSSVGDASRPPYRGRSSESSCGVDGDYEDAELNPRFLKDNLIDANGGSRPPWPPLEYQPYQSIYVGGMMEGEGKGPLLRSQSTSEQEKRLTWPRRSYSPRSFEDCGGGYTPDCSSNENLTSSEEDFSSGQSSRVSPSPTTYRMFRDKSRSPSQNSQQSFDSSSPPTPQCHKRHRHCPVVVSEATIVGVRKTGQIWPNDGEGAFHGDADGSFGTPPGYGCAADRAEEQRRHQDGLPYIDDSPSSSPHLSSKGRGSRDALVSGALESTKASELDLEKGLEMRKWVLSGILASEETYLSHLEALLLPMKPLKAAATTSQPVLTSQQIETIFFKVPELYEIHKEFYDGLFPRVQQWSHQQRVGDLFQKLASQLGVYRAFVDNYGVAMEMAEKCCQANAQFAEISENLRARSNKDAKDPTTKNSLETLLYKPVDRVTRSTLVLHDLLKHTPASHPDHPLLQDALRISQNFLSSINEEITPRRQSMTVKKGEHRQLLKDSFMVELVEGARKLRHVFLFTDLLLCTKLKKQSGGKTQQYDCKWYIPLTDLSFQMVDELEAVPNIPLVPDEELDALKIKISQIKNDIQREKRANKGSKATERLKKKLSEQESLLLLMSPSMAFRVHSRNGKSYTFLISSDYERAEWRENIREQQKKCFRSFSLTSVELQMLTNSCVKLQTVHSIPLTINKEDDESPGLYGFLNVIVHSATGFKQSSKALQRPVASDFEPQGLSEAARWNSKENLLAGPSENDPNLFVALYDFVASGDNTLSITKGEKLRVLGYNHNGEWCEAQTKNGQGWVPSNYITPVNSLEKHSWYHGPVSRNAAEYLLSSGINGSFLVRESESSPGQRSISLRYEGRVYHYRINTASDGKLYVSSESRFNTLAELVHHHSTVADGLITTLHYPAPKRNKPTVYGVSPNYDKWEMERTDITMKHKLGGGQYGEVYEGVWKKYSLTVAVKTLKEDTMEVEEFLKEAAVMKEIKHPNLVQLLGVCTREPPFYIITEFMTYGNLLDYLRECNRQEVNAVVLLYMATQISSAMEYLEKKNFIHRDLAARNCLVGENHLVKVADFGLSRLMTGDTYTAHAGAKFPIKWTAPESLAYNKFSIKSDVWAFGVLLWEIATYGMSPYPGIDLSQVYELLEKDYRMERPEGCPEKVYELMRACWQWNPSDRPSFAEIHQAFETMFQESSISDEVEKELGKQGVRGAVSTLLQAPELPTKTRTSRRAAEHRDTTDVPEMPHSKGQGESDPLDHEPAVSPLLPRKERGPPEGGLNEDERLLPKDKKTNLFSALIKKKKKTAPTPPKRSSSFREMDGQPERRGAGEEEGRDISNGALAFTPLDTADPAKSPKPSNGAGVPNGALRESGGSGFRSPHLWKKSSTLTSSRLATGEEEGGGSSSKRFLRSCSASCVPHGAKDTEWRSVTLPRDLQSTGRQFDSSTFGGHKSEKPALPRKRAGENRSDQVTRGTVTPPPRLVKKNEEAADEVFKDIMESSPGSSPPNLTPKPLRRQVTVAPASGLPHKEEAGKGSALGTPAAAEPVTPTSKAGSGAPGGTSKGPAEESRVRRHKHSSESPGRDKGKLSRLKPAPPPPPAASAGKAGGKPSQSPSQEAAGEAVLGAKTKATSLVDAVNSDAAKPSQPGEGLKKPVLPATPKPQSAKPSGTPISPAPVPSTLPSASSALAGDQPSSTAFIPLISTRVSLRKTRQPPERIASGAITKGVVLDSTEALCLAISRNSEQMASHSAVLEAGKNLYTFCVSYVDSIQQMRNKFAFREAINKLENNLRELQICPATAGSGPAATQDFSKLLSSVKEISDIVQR", "test": "Washout experiment, BCR-ABL protein level by western blot in K562 cells", "format": "cell-based", "conditions": "K562, 50 times IC50 for 12 h, BCR-ABL/β-tubulin", "procedure": "(§1) Cells were collected and lysed in a lysis buffer (0.5% Triton X-100, 0.01 M Tris-HCl (pH 7.5), 0.15 M NaCl, Complete Mini protease inhibitor cocktail (Roche Applied Science, Indianapolis, IL, USA) and PhosStop phosphatase inhibitor cocktail (Roche Applied Science)). Protein concentrations were measured by the BCA method (Thermo Fisher Scientific) and an equal amount of protein lysate was separated by SDS-PAGE, transferred to polyvinylidene difluoride membranes (Merck Millipore) and analyzed by western blot using an appropriate antibody. The immunoreactive proteins were visualized using Clarity Western ECL substrate (Bio-Rad, Hercules, CA, USA) and their light emission was quantified with a LAS-3000 lumino-image analyzer (Fuji, Tokyo, Japan).\n(§2) Cells were seeded at a concentration of 2 × 10^6 cells per 10-cm tissue culture dish and treated with the indicated compounds for the indicated times. Then, the cells were washed three times to remove the compounds, and incubated in drug-free medium for the indicated times."}, "KU812 cells": {"test_system": "KU812 cells", "test": "WST cell growth inhibition, KU812", "format": "cell-based", "conditions": "Homo sapiens, 48 h, WST assay, means ± SD (n = 3)", "procedure": "Human CML (K562 and KU812 cells), acute T-lymphoblast leukemia (MOLT-4 cell), and T cell leukemia (Jurkat cell) were cultured in Roswell Park Memorial Institute-1640 medium (Sigma-Aldrich, St. Louis, MO, USA) containing 10% fetal bovine serum (Thermo Fisher Scientific, Waltham, MA, USA) and 50 μg/ml kanamycin (Sigma-Aldrich). KU812 cells were obtained from Japanese Collection of Research Bioresources (JCRB, Osaka, Japan) Cell Bank (JCRB0104)[58].\nCell viability was determined using water-soluble tetrazolium WST-8 (4-[3-(2-methoxy-4-nitrophenyl)-2-(4-nitrophenyl)-2H-5-tetrazolio]-1,3-benzene disulfonate) for the spectrophotometric assay and conducted according to the manufacturer’s instructions (Dojindo, Tokyo, Japan). Cells were seeded at a concentration of 5 × 10^3 cells per well in a 96-well culture plate, and treated with the indicated compounds for 48 h. The WST-8 reagent was added, and the cells were incubated for 0.5 h at 37 °C in a humidified atmosphere of 5% CO2. The absorbance at 450 nm of the medium was measured using the EnVision Multilabel Plate Reader."}, "MOLT-4 cells": {"test_system": "MOLT-4 cells", "test": "WST cell growth inhibition, MOLT-4 (BCR-ABL negative)", "format": "cell-based", "conditions": "Homo sapiens, MOLT4 cells, 48 h, WST assay, means ± SD (n = 3)"}, "[1]": {"test_system": "phosphorylation of BCR-ABL, STAT5 and CrkL", "test": "Downstream kinase signaling (phosphorylation) by western blot in K562 cells", "format": "cell-based, Human", "procedure": "as §1, with “Japan). The following antibodies were used: anti-cAbl rabbit polyclonal antibody (pAb) (#2862), anti-XIAP rabbit pAb (#2042), anti-phospho-cAbl rabbit pAb (#3009), anti-STAT5 rabbit pAb (#9363), anti-phospho-STAT5 rabbit pAb (#9359), anti-CrkL mouse monoclonal antibody (mAb) (#3182) and anti-phospho-CrkL rabbit pAb (#3181), anti-PARP rabbit pAb (#9532), and anti-cleaved Caspase 3 rabbit pAb (#9664) (Cell Signaling Technology, Danvers, MA, USA); anti-β-tubulin (ab6046) rabbit pAb (Abcam, Cambridge, UK) and anti-GAPDH rabbit pAb (sc-25778 HRP) (Santa Cruz, Dallas, TX, USA); anti-cIAP1 goat pAb (AF8181) (R&D systems).” for “Japan).”\nas §2"}, "[2]": {"test_system": "caspase 3 activation and PARP cleavage", "test": "Caspase activation and PARP cleavage after drug removal in K562 cells", "format": "cell-based, Human", "conditions": "K562, 50 times IC50 for 12 h, drug removal for 24 h", "procedure": "as §1, with “Japan). The following antibodies were used: anti-cAbl rabbit polyclonal antibody (pAb) (#2862), anti-XIAP rabbit pAb (#2042), anti-phospho-cAbl rabbit pAb (#3009), anti-STAT5 rabbit pAb (#9363), anti-phospho-STAT5 rabbit pAb (#9359), anti-CrkL mouse monoclonal antibody (mAb) (#3182) and anti-phospho-CrkL rabbit pAb (#3181), anti-PARP rabbit pAb (#9532), and anti-cleaved Caspase 3 rabbit pAb (#9664) (Cell Signaling Technology, Danvers, MA, USA); anti-β-tubulin (ab6046) rabbit pAb (Abcam, Cambridge, UK) and anti-GAPDH rabbit pAb (sc-25778 HRP) (Santa Cruz, Dallas, TX, USA); anti-cIAP1 goat pAb (AF8181) (R&D systems).” for “Japan).”\nas §2"}, "ABL1": {"biological_target": "T2, ABL1 (Homo sapiens, UniProt P00519)", "T2 construct": "the His-tagged ABL1 protein (full length, P3049) were from Life Technologies; purchased Life Technologies P3049", "T2 sequence (P00519 whole entry)": "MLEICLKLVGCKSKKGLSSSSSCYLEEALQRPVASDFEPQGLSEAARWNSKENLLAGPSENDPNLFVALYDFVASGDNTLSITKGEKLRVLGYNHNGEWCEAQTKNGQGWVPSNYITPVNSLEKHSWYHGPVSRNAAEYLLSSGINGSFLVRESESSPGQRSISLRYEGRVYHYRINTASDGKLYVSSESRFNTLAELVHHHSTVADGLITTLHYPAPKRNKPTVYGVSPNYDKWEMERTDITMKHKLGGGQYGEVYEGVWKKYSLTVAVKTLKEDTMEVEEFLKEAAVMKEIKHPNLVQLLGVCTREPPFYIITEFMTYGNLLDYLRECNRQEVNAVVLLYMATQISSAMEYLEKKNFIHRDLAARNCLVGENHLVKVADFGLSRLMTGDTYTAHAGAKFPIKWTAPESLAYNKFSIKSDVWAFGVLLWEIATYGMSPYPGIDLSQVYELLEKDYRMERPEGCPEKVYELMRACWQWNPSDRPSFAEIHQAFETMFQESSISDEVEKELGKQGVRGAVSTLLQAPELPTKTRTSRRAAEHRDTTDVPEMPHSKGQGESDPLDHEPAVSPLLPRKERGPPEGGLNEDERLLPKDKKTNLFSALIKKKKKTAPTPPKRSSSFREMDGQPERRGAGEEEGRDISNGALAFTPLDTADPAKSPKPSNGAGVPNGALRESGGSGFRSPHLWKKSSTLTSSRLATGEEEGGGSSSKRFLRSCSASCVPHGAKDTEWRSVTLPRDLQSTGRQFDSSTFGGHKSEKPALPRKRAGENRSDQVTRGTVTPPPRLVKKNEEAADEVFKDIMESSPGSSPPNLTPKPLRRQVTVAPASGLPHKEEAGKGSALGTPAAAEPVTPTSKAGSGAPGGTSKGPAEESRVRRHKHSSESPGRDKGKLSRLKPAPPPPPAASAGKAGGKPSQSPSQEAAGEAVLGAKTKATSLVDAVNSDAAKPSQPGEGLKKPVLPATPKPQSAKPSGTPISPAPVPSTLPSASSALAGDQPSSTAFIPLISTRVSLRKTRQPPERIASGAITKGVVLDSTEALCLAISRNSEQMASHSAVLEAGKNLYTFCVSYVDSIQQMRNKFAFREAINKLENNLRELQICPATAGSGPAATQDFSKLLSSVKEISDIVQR", "test": "TR-FRET binding assay, ABL1 (BODIPY-dasatinib probe)", "conditions": "concentration required to inhibit the probe binding to ABL by 50%, read-out: Binding affinity IC50 ABL", "procedure": "The TR-FRET assay was carried out using 384-well white flat-bottom plates (Greiner Bio-One) and the signal was measured using an EnVision Multilabel Plate Reader (PerkinElmer, Waltham, MA, USA).\nThe half maximal inhibitory concentration (IC50) of test compounds was calculated by fitting the data with the logistic equation using GraphPad Prism 5 (GraphPad Software, Inc., La Jolla, CA, USA) or XLfit (IDBS, Guildford, UK).\nBefore addition to the assay plate, 3-fold concentrations of the His-ABL1 protein, Tb-SA and the biotinylated anti-His antibody were mixed in the assay buffer and incubated for over 1 h at room temperature. Several concentrations of test inhibitors dissolved in the assay buffer were dispensed in the assay plate. […] The plate was incubated for 30 min at room temperature and the TR-FRET signal was measured using the EnVision Multilabel Plate Reader."}, "K562 cells": {"test_system": "K562 cells", "test": "Washout experiment, cell counting of K562 cells", "format": "cell-based, Human", "conditions": "washed; for growth of K562 cells after drug removal: 25 or 50 times IC50 for 12 h, drug-free medium for 6 d", "procedure": "as §2"}, "[3]": {"conditions": "K562, 50 times IC50 for 12 h (time 0)"}},
  "data": [
    {"compound": "CN[C@@H](C)C(=O)N[C@H](C(=O)N1CCC[C@H]1c1nc(C(=O)c2cccc(OCCOCCOCCOCC(=O)N3CCN(c4cc(Nc5ncc(C(=O)Nc6c(C)cccc6Cl)s5)nc(C)n4)CC3)c2)cs1)C1CCCCC1", "note": "[DAS-IAP]", "values": [
      {"measurement": "BCR-ABL % of control", "setting": "BCR-ABL protein; time after washout 0 h", "result": "32 % of control"},
      {"measurement": "BCR-ABL % of control", "setting": "BCR-ABL protein; time after washout 48 h", "result": "2 % of control"},
      {"measurement": "BCR-ABL % of control", "setting": "BCR-ABL protein; time after washout 72 h", "result": "2 % of control"},
      {"measurement": "IC50", "setting": "KU812 cells", "result": "8.97 ± 0.99", "unit": "nM"},
      {"measurement": "IC50", "setting": "MOLT-4 cells", "result": "1720 ± 64.9", "unit": "nM"},
      {"measurement": "phosphorylation of BCR-ABL, STAT5 and CrkL", "setting": "[1]; [3]", "result": "inhibited"},
      {"measurement": "phosphorylated BCR-ABL, STAT5 and CrkL after drug removal", "setting": "[1]; K562, 50 times IC50 for 12 h, 48 and 72 h after drug removal", "result": "remained significantly diminished"},
      {"measurement": "phosphorylation of BCR-ABL, STAT5 and CrkL", "setting": "[1]; K562 cells, 6 h", "result": "suppressed"},
      {"measurement": "caspase 3 activation and PARP cleavage", "setting": "[2]", "result": "induced"},
      {"measurement": "IC50", "setting": "ABL1", "result": 0.54, "unit": "nM"},
      {"measurement": "growth of K562 cells after drug removal", "setting": "K562 cells", "result": "markedly inhibited the growth"},
      {"measurement": "K562 cell number after drug removal", "setting": "K562 cells; 50 times IC50 for 12 h, drug-free medium", "result": "decreased continuously"}
    ]},
    {"compound": "CN[C@@H](C)C(=O)N(C)[C@H](C(=O)N1CCC[C@H]1c1nc(C(=O)c2cccc(OCCOCCOCCOCC(=O)N3CCN(c4cc(Nc5ncc(C(=O)Nc6c(C)cccc6Cl)s5)nc(C)n4)CC3)c2)cs1)C1CCCCC1", "note": "[DAS-meIAP]", "values": [
      {"measurement": "BCR-ABL % of control", "setting": "BCR-ABL protein; time after washout 0 h", "result": "84 % of control"},
      {"measurement": "BCR-ABL % of control", "setting": "BCR-ABL protein; time after washout 48 h", "result": "80 % of control"},
      {"measurement": "BCR-ABL % of control", "setting": "BCR-ABL protein; time after washout 72 h", "result": "73 % of control"},
      {"measurement": "IC50", "setting": "KU812 cells", "result": "3.57 ± 0.22", "unit": "nM"},
      {"measurement": "IC50", "setting": "MOLT-4 cells", "result": "1900 ± 108", "unit": "nM"},
      {"measurement": "phosphorylation of BCR-ABL, STAT5 and CrkL", "setting": "[1]; [3]", "result": "inhibited"},
      {"measurement": "phosphorylation of BCR-ABL, STAT5 and CrkL", "setting": "[1]; K562 cells, 6 h", "result": "suppressed"},
      {"measurement": "caspase 3 activation and PARP cleavage", "setting": "[2]", "result": "not"},
      {"measurement": "IC50", "setting": "ABL1", "result": "< 0.24", "unit": "nM"},
      {"measurement": "growth of K562 cells after drug removal", "setting": "K562 cells", "result": "slightly delayed the growth"}
    ]}
  ]
}
